Several values for one entry are separate records, joined by “and”; a condition that tells them apart may be missing. Equal entries are not always repeated. Where two headings read alike, the source gives them in different places. Each block holds one compound with its values, some of them ahead of it.
How the values were obtained:
[1] = tested on: lung (A-549) cancer cell line; assay: Antiproliferative assay, A-549; type: cell-based; conditions: Homo sapiens, A549; read-out: Antiproliferative activity IC50 ± SEM, A-549
Text: (§1) The MTT assay ([Al-Wahaibi et al., 2022]; [Mahmoud et al., 2023]) was employed to assess the antiproliferative effects of compounds 3a-h and 5a-g on four human cancer cell lines: colon (HT-29) cancer, pancreatic (Panc-1) cancer, lung (A-549) cancer, and breast (MCF-7) cancer cell lines. Erlotinib was applied as a reference. Table 1 presents the median inhibitory concentration (IC50) and average IC50 (GI50) values for each compound evaluated on the four cancer cell lines.
(§2) Compounds 3a-h and 5a-g were tested for their antiproliferative activities on four human cancer cell lines: colon (HT-29), pancreatic (Panc-1), lung (A-549), and breast (MCF-7) using the MTT assay ([Al-Wahaibi et al., 2022]; [Mahmoud et al., 2023]). Erlotinib was applied as a reference.
(§3) To explore the antiproliferative potential of compounds propidium iodide fluorescence assay was performed using different cell lines such as Panc-1 (pancreas cancer cell line), MCF-7 (breast cancer cell line), HT-29 (colon cancer cell line) and A-549 (epithelial cancer cell line), respectively. To calculate the total nuclear DNA, a fluorescent dye (propidium iodide, PI) is used which can attach to the DNA, thus offering a quick and precise technique. PI cannot pass through the cell membrane and its signal intensity can be considered as directly proportional to quantity of cellular DNA. Cells whose cell membranes are damaged or have changed permeability are counted as dead ones. The assay was performed by seeding the cells of different cell lines at a density of 3000-7500 cells/well (in 200μl medium) in culture plates followed by incubation for 24h at 37 °C in humidified 5%CO2/95% air atmospheric conditions. The medium was removed; the compounds were added to the plates at 10 μM concentrations (in 0.1% DMSO) in triplicates, followed by incubation for 48h. DMSO (0.1%) was used as control. After incubation, medium was removed followed by the addition of PI (25 μl, 50μg/mL in water/medium) to each well of the plates. At -80 °C, the plates were allowed to freeze for 24 h, followed by thawing at 25 °C. A fluorometer (Polar-Star BMG Tech) was used to record the readings at excitation and emission wavelengths of 530 and 620 nm for each well. The percentage cytotoxicity of compounds was calculated using the following formula: […]

[2] = tested on: breast (MCF-7) cancer cell line; assay: Antiproliferative assay, MCF-7; type: cell-based; conditions: Homo sapiens, MCF7; read-out: Antiproliferative activity IC50 ± SEM, MCF-7
Text: as §1, §2, §3

[3] = tested on: pancreatic (Panc-1) cancer cell line; assay: Antiproliferative assay, Panc-1; type: cell-based; conditions: Homo sapiens, read-out: Antiproliferative activity IC50 ± SEM, Panc-1
Text: as §1, §2, §3

[4] = tested on: colon (HT-29) cancer cell line; assay: Antiproliferative assay, HT-29; type: cell-based; conditions: Homo sapiens, read-out: Antiproliferative activity IC50 ± SEM, HT-29
[5] = tested on: four human cancer cell lines (A-549, MCF-7, Panc-1, HT-29); assay: Antiproliferative assay, average over four cancer cell lines; type: cell-based; conditions: for GI50: Homo sapiens, average IC50 over the four cancer cell lines
Caspase-3 = Caspase-3 activation assay; type: cell-based, human; conditions: MCF-7 cells; for Caspase-3 Fold change: versus control
Description: (§4) Refer to Supplementary Appendix A.
Allow all reagents to reach room temperature before use. Gently mix all liquid reagents prior to use. Determine the number of 8-well strips needed for the assay. Insert these in the frame(s) for current use. Add 100 μl of the Standard Diluent Buffer to the zero standard wells. Well(s) reserved for chromogen blank should be left empty. Add 100 μl of standards and controls or diluted samples to the appropriate microtiter wells. The sample dilution chosen should be optimized for each experimental system. Tap gently on side of plate to mix. Cover wells with plate cover and incubate for 2 hours at room temperature. Thoroughly aspirate or decant solution from wells and discard the liquid, Wash wells 4 times. […] Tap gently on the side of the plate to mix. Cover plate with plate cover and incubate for 1 hour at room temperature. Thoroughly aspirate or decant solution from wells and discard the liquid, Wash wells 4 times. Add 100 μl Anti-Rabbit IgG HRP Working Solution to each well except the chromogen blank(s). Prepare the working dilution as described in Preparing IgG HRP. Cover wells with the plate cover and incubate for 30 minutes at room temperature. Thoroughly aspirate or decant solution from wells and discard the liquid. Wash wells 4 times. Add 100 μl of Stabilized Chromogen to each well. The liquid in the wells will begin to turn blue. Incubate for 30 minutes at room temperature and in the dark. The incubation time for chromogen substrate is often determined by the microtiter plate reader used. Many plate readers have the capacity to record a maximum optical density (O.D.) of 2.0. The O.D. values should be monitored, and the substrate reaction stopped before the O.D. of the positive wells exceeds the limits of the instrument. The O.D. values at 450 nm can only be read after the Stop Solution has been added to each well. […] Add 100 μl of Stop Solution to each well. Tap side of plate gently to mix. The solution in the wells should change from blue to yellow. Read the absorbance of each well at 450 nm having blanked the plate reader against a chromogen blank composed of 100 μl each of Stabilized Chromogen and Stop Solution. Read the plate within 2 hours after adding the Stop Solution. Use a curve fitting software to generate the standard curve. […] Read the concentrations for unknown samples and controls from the standard curve. Multiply value(s) obtained for sample(s) by the appropriate dilution factor to correct for the dilution in step 3.

Caspase-8 = Caspase-8 activation assay; type: cell-based, human; conditions: MCF-7 cells; for Caspase-8 Fold change: versus control
Description: as §4
(§5) (Cells are Plated in a density of 1.2 – 1.8 × 10,000 cells/well in a volume of 100µl complete growth medium + 100 ul of the tested compound per well in a 96-well plate for 24 hours before the enzyme assay for Tubulin.). The absorbance of each microwell was read on a spectro-photometer at 450 nm. A standard curve is prepared from 7human Caspase-8 standard dilutions and human Caspase-8 concentration determined.

Caspase-9 = Caspase-9 activation assay; type: cell-based, human; conditions: MCF-7 cells; for Caspase-9 Fold change: versus control
Description: To elucidate the apoptotic mechanism of compounds 3d and 5a, whether via the intrinsic or extrinsic pathway, their impact on caspase-8 and caspase-9 was evaluated.
RPMI 1640 with 10% FBS was used to assist the cells grow at 37 °C, and then the cells were treated with the compounds being studied to check the activity of caspase-3, -8, and -9 ([Hisham et al., 2019]). Refer to Supplementary Appendix A.
as §5, with “Cells were obtained from American Type Culture Collection, cells were grown in RPMI 1640 containing 10% fetal bovine serum at 37°C, stimulated with the compounds to be tested for caspase8, and lysed with Cell Extraction Buffer. This lysate was diluted in Standard Diluent Buffer over the range of the assay and measured for human active caspase-8 content. (Cells” for “(Cells”

Bax = Bax level assay; conditions: MCF-7 cells; for Bax Fold change: versus control
Description: Bring all reagents, except the human Bax-α Standard, to room temperature for at least 30 minutes prior to opening. The human Bax-α Standard solution should not be left at room temperature for more than 10 minutes. All standards, controls and samples should be run in duplicate. Refer to the Assay Layout Sheet to determine the number of wells to be used and put any remaining wells with the desiccant back into the pouch and seal the ziploc. Store unused wells at 4 °C. Pipet 100 μL of Assay Buffer into the S0 (0 pg/mL standard) wells. Pipet 100 μL of Standards #1 through #6 into the appropriate wells. Pipet 100 μL of the Samples into the appropriate wells. Tap the plate gently to mix the contents. Seal the plate and incubate at room temperature on a plate shaker for 1 hour at ~500 rpm. Empty the contents of the wells and wash by adding 400 μL of wash solution to every well. Repeat the wash 4 more times for a total of 5 washes. After the final wash, empty or aspirate the wells and firmly tap the plate on a lint free paper towel to remove any remaining wash buffer. Pipet 100 μL of yellow Antibody into each well, except the Blank. Seal the plate and incubate at room temperature on a plate shaker for 1 hour at ~500 rpm. Empty the contents of the wells and wash by adding 400 μL of wash solution to every well. Repeat the wash 4 more times for a total of 5 washes. After the final wash, empty or aspirate the wells and firmly tap the plate on a lint free paper towel to remove any remaining wash buffer. Add 100 μL of blue Conjugate to each well, except the Blank. Seal the plate and incubate at room temperature on a plate shaker for 30 minutes at ~500 rpm. Empty the contents of the wells and wash by adding 400 μL of wash solution to every well. Repeat the wash 4 more times for a total of 5 washes. After the final wash, empty or aspirate the wells and firmly tap the plate on a lint free paper towel to remove any remaining wash buffer. Pipet 100 μL of Substrate Solution into each well. Incubate for 30 minutes at room temperature on a plate shaker at ~500 rpm. Pipet 100 μL Stop Solution to each well. Blank the plate reader against the Blank wells, read the optical density at 450 nm. Calculate the average net Optical Density (OD) bound for each standard and sample by subtracting the average Blank OD from the average OD for each standard and sample. Using linear graph paper, plot the Average Net OD for each standard versus Bax concentration in each standard. Approximate a straight line through the points. The concentration of Bax in the unknowns can be determined by interpolation.

Bcl-2 = Bcl-2 level assay; conditions: MCF-7 cells; for Bcl-2 Fold reduction: versus control
Description: Mix all reagents thoroughly without foaming before use. Wash the microwells twice with approximately 300 μL Wash Buffer per well with thorough aspiration of microwell contents between washes. Take caution not to scratch the surface of the microwells. After the last wash, empty the wells and tap microwell strips on absorbent pad or paper towel to remove excess Wash Buffer. Use the microwell strips immediately after washing or place upside down on a wet absorbent paper for not longer than 15 minutes. […] Add 100 μL of Sample Diluent in duplicate to all standard wells and to the blank wells. […] Add 100 μL of Sample Diluent, in duplicate, to the blank wells. Add 80 μL of Sample Diluent, in duplicate, to the sample wells. Add 20 μL of each Sample, in duplicate, to the designated wells. Add 50 μL of diluted biotin-conjugate to all wells, including the blank wells. Cover with a plate cover and incubate at room temperature, on a microplate shaker at 100 rpm if available, for 2 hours. Remove plate cover and empty the wells. Wash microwell strips 3 times as described in step 2. Add 100 μL of diluted Streptavidin-HRP to all wells, including the blank wells. Cover with a plate cover and incubate at room temperature, on a microplate shaker at 100 rpm if available, for 1 hour. Remove plate cover and empty the wells. Wash microwell strips 3 times as described in step 2. […] Pipette 100 μl of mixed TMB Substrate Solution to all wells, including the blanks. Incubate the microwell strips at room temperature (18° to 25°C) for about 15 minutes, if available on a rotator set at 100 rpm. Avoid direct exposure to intense light. The point, at which the substrate reaction is stopped, is often determined by the ELISA reader. Many ELISA readers record absorbance only up to 2.0 O.D. Therefore, the color development within individual microwells must be watched by the person running the assay and the substrate reaction stopped before positive wells are no longer properly detectable. Stop the enzyme reaction by quickly pipetting 100 μL of Stop Solution into each well, including the blank wells. It is important that the Stop Solution is spread quickly and uniformly throughout the microwells to completely inactivate the enzyme. Results must be read immediately after the Stop Solution is added or within one hour if the microwell strips are stored at 2 - 8°C in the dark. Read absorbance of each microwell on a spectrophotometer using 450 nm as the primary wavelength.

Cytochrome C = Cytochrome C assay; conditions: MCF-7 cells; for Cytochrome C Fold change: versus control
Description: This lysate was diluted in Standard Diluent Buffer over the range of the assay and measured for cytochrome C content. (Cells are Plated in cells/well in a volume of 100µl complete growth medium + 100 µl of the tested compound + 50 µl of 1X biotin conjugated antibody+ 100 µl of 1X streptavidin-HRP+ 100 µL TMB substrate solution of per well in a 96-well plate for 24 hours before assay).

EGFR = EGFR (Homo sapiens, UniProt P00533); assay: EGFR inhibitory assay (EGFR-TK test); conditions: EGFR inhibition IC50 ± SEM
Chain of EGFR (P00533 669-1210): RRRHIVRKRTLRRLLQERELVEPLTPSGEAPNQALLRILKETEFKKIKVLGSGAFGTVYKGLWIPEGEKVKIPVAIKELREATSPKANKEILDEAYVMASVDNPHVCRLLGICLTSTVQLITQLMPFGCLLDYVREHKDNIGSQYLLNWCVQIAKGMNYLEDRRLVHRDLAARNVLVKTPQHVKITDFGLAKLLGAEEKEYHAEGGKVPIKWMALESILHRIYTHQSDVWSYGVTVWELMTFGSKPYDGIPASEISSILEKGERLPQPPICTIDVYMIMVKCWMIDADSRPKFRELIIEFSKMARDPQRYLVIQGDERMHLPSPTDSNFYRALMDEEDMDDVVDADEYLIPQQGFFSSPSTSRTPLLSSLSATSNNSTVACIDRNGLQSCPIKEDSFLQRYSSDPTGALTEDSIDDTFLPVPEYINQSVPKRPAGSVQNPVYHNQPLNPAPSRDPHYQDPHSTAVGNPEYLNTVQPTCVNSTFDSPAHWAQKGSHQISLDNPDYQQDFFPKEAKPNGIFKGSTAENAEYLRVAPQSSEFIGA
Description: 5ʹ upstream to the EGFR sequence comprised a sequence that encoded (His)6. Sf-9 cells were infected for 72h for protein expression. The pellets of Sf-9 cells were solubilized in a buffer containing sodium vanadate (100 μM), aprotinin (10 μg/mL), triton (1%), HEPES buffer(50mM), ammonium molybdate (10 μM), benzamidine HCl (16 μg/mL), NaCl (10 mM),leupeptin (10 μg/mL) and pepstatin (10 μg/mL) at 0°C for 20 min at pH 7.4, followed by centrifugation for 20 min. To eliminate the nonspecifically bound material, a Ni-NTA super flow packed column was used to pass through and wash the crude extract supernatant first with 10mM and then with 100 mM imidazole. Histidine-linked proteins were first eluted with 250 and then with 500 mM imidazole subsequent to dialysis against NaCl (50 mM), HEPES (20 mM), glycerol (10%) and 1 μg/mL each of aprotinin, leupeptin and pepstatin for 120 min. The purification was performed either at 4 °C or on ice. To record autophosphorylation level, EGFR kinase assay was carried out on the basis of DELFIA/Time-Resolved Fluorometry. […] Each compound (10 μL) was incubated with recombinant enzyme (10 μL, 5 ng for EGFR, 1:80 dilution in 100 mM HEPES) for 10 min at 25 °C, subsequent to the addition of 5X buffer (10 μL, containing 2 mM MnCl2, 100 μM Na3VO4, 20 mM HEPES and 1 mM DTT) and ATP-MgCl2 (20 μL, containing 0.1 mM ATP and 50 mM MgCl2) and incubation for 1h. The negative and positive controls were included in each plate by the incubation of enzyme either with or without ATP-MgCl2. The liquid was removed after incubation and the plates were washed thrice using a wash buffer. The Europium-tagged antiphosphotyrosine antibody (75 μL, 400 ng) was added to each well followed by incubation of 1h and then washing of the plates using buffer. […] The autophosphorylation percentage inhibition by compounds was calculated using the following equation:
The majority of signals detected by antiphosphotyrosine antibody were from EGFR because the enzyme preparation contained low impurities.

HER-2 = HER-2 (Homo sapiens, UniProt P04626); assay: HER-2 inhibitory assay (ADP-Glo kinase assay)
Chain of HER-2 (P04626 676-1255 limits assumed): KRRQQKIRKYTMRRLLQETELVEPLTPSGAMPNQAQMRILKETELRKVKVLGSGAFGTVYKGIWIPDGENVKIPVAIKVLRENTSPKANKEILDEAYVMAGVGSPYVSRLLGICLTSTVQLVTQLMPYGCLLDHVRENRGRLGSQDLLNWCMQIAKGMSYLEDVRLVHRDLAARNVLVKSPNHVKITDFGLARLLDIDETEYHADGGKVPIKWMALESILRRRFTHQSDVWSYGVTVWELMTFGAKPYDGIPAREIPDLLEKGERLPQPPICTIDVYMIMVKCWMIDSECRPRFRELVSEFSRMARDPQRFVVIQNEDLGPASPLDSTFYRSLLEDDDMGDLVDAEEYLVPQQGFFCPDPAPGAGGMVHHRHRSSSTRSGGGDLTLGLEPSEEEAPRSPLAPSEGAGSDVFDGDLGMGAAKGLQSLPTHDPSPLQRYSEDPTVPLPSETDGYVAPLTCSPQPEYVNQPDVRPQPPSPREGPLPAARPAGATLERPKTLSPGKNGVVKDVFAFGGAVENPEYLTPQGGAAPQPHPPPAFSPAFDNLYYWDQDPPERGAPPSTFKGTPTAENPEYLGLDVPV
Description: The ADP-Glo™ Kinase Assay was used for kinase activity detection, related kinases information: HER-2 (ab60866, Abcam), with a concentration of 100 ng/mL. Target compounds were dissolved in DMSO to obtain drug solutions with different concentrations, and the compound concentrations in the final reaction system (100 μL) were 1 nM, 20 nM, 40 nM, 80 nM, and 100 nM, respectively. 10μL of the solution containing compounds was transferred to a 96-well plate, then added 40 μL of 1 × kinase buffer (50 mM HEPES, pH 7.5) to each well, and mixed the mixture in the 96-well plate on a shaker for 10 min. Next, added 25 μL of ADP-Glo™ reagent to the above wells, mixed and incubated for another 40 min. Distributed 10 μL kinase detection reagent to the reaction and incubated for 30 min. Finally, the full-wavelength microplate reader was used to record the OD value.

[6] = Cell viability assay (MTT), normal mammary cells; conditions: human, MCF-10A normal mammary epithelial cells
Description: (§6) MTT assay was performed to investigate the effect of the synthesized compounds on mammary epithelial cells (MCF-10A). The cells were propagated in medium consisting of Ham's F-12 medium/ Dulbecco's modified Eagle's medium (DMEM) (1:1) supplemented with 10% foetal calf serum, 2 mM glutamine, insulin (10 μg/mL), hydrocortisone (500 ng/mL) and epidermal growth factor (20 ng/mL). Trypsin ethylenediamine tetra acetic acid (EDTA) was used to passage the cells after every 2-3 days. 96-well flat-bottomed cell culture plates were used to seed the cells at a density of 10^4 cells mL^-1. The medium was aspirated from all the wells of culture plates after 24 h followed by the addition of synthesized compounds (in 200 μL medium to yield a final concentration of 0.1% (v/v) dimethyl sulfoxide) into individual wells of the plates. Four wells were designated to a single compound. The plates were allowed to incubate at 37°C for 96 h. Afterwards, the medium was aspirated and 3-[4,5-dimethylthiazol-2-yl]-2,5-diphenyltetrazolium bromide (MTT) (0.4 mg/mL) in medium was added to each well and subsequently incubated for 3 h. The medium was aspirated and 150 μL dimethyl sulfoxide (DMSO) was added to each well. The plates were vortexed followed by the measurement of absorbance at 540 nm on a microplate reader.

[7] = tested on: MCF-7 human breast cancer cell line; assay: Flow cytometric cell cycle analysis; type: cell-based
in vitro = conditions: human
Description: as §6

[8] = tested on: panel of cancer cell lines; set-up: method as in Voigtlaender et al., 2018; conditions: ref Voigtlaender et al., 2018; read-out: GI50 against a panel of cancer cell lines; cited from earlier work
[9] = tested on: breast (MCF-7) cancer cell line; set-up: method as in Voigtlaender et al., 2018; conditions: ref Voigtlaender et al., 2018, cited from earlier work; for IC50: read-out: IC50 against the MCF-7 cell line

IC50 [1]: 40 ± 3 nM
IC50 [2]: 37 ± 3 nM
IC50 [3]: 43 ± 4 nM
IC50 [4]: 42 ± 4 nM
GI50 [5]: 41 nM
Fold less effective than erlotinib (GI50) ([5]; ratio to erlotinib GI50 = […] nM): 1.3
IC50 (EGFR): 91 ± 6 nM
IC50 (HER-2): 38 ± 2 nM
SMILES: Cc1ccc(S(=O)(=O)N/N=C/c2c(O)c3ccccc3[nH]c2=O)cc1 [Compound 3d, (E)-N'-((4-hydroxy-2-oxo-1,2-dihydroquinolin-3-yl)methylene)-4-methyl benzenesulfonohydrazide]
Caspase-3 Conc (Caspase-3): 515 ± 5 pg/mL
Caspase-3 Fold change (Caspase-3): 8.0
Caspase-8 Conc (Caspase-8): 2.10 ± 0.20 ng/mL
Caspase-8 Fold change (Caspase-8): 23
Caspase-9 Conc (Caspase-9): 21 ± 3 ng/mL
Caspase-9 Fold change (Caspase-9): 21
Bax Conc (Bax): 310 pg/mL and 310 ± 2 pg/mL
Bax Fold change (Bax): 34
Bcl-2 Conc (Bcl-2): 0.80 ng/mL
Bcl-2 Fold reduction (Bcl-2): 6
Cytochrome C Conc (Cytochrome C): 0.65 ng/mL
Cytochrome C Fold change (Cytochrome C): 13
viability at 4 days, 50 µM [6]: 91%

SMILES: O=c1[nH]c2ccccc2c(O)c1/C=N/Nc1ccc([N+](=O)[O-])cc1[N+](=O)[O-] [Compound 5a, (E)-3-((2-(2,4-Dinitrophenyl)hydrazono)methyl)-4-hydroxyquinolin-2(1H)-one]
IC50 [1]: 36 ± 3 nM
IC50 [2]: 34 ± 3 nM
IC50 [3]: 38 ± 3 nM
IC50 [4]: 38 ± 3 nM
Fold less effective than erlotinib (GI50) [5]: 1.2
GI50 [5]: 37 nM
Caspase-3 Conc (Caspase-3): 570 ± 5 pg/mL
Caspase-3 Fold change (Caspase-3): 9.0
Caspase-8 Conc (Caspase-8): 2.65 ± 0.25 ng/mL
Caspase-8 Fold change (Caspase-8): 29
Caspase-9 Conc (Caspase-9): 24 ± 1 ng/mL
Caspase-9 Fold change (Caspase-9): 24
Percentage of cells in G2/M phase [7]: 1.94%
Percentage of cells in S phase ([7]; control 26.82%): 15.65%
viability at 4 days, 50 µM (in vitro): 88%
Bax Conc (Bax): 320 pg/mL and 320 ± 2 pg/mL
Bax Fold change (Bax): 35
Bcl-2 Conc (Bcl-2): 0.70 ng/mL
Bcl-2 Fold reduction (Bcl-2): 7
Cytochrome C Conc (Cytochrome C): 0.85 ng/mL
Cytochrome C Fold change (Cytochrome C): 17
IC50 (EGFR): 87 ± 5 nM
IC50 (HER-2): 33 ± 2 nM
Times less potent than lapatinib, HER-2 inhibition (HER-2; ratio to lapatinib IC50): 1.3

SMILES: O=c1[nH]c2ccccc2c(O)c1/C=N/c1ccc(NS(=O)(=O)c2ncccn2)cc1 [Compound III]
GI50 [8]: 25 nM
Times more potent than erlotinib, MCF-7 ([9]; ratio of IC50 values): 1.8
IC50 [9]: 23 nM

SMILES: C#Cc1cccc(Nc2ncnc3cc(OCCOC)c(OCCOC)cc23)c1 [Erlotinib, reference compound]
IC50 [1]: 30 ± 3 nM
IC50 [2]: 40 ± 3 nM
IC50 [3]: 30 ± 3 nM
IC50 [4]: 30 ± 3 nM
IC50 [9]: 40 nM

Source: paper PMC12481029, “Design, synthesis, antiproliferative assessments, and computational studies of new quinolin-2(1H)-ones as dual EGFR/HER-2 inhibitors” (Frontiers in Chemistry, 2025)
